# What was measured:
# Trypanosoma cruzi [1] = experiment: GSK_TCAKS: pIC50 Trypanosoma cruzi viability assay using beta-GAL activity. This assay was run at single shot at 5uM compound concentration per well. The biological reagents consisted of NIH-3T3 host cells and trypomastigotes parasitic cells; both cell types were set to a 3.3 * 10^5 cells/mL dilution in assay DMEM by means of a CASY cell counter device using a 60um capillary. 6 uL of the mixture were dispensed per well (about 1 * 10^3 host-cells and 1 * 10^3 parasites) with a Multidrop Combi dispenser. […] In all wells, the percentage of DMSO never exceeded 0.5%. Plates incubated for four days at 37C, 5% CO2. The substrate used for the assay fluorescence intensity (FLINT) readout was resorufin-beta-D-galactopiranoside (Sigma-Aldrich) at 5uM per well. It was diluted in PBS supplemented with the soft detergent Igepal (Fluka).; format: functional, organism-based, Mus musculus; settings: Tulahuen, NIH3T3
# Trypanosoma cruzi [2] = experiment: (§1) GSK_TCAKS: pIC50 Trypanosoma cruzi Imaging: Infected Cells. […] Cells were then washed once with PBS before infection. T. cruzi trypomastigotes, collected at days 5 to 8 after infection from LLC-MK2 parasite infected cultures, were allowed to swim out for 4h at 37C from a centrifuged pellet (2,500 rpm/10 min/room temperature). Trypomastigotes were then collected and counted in a CASY Cell Counter. Trypomastigotes, in supplemented DMEM, were added to H9c2 cultures in a multiplicity of infection of 1 and incubated for 18 h. Cells were washed once with PBS before incubation of the infected H9c2 monolayer with trypsin (Life-Technologies) to detach cells from the flask. Cells were counted in a CASY Cell Counter using a 150 um capillary and their density set at 5 * 10^4 cells per mL in supplemented assay DMEM. Infected H9c2 were dispensed into 384-well poly-lysine coated assay plates at 50uL per well using a Multidrop Combi dispenser. After seeding them, the plates were incubated at 37C, 5% CO2 for 72h. Cultures were then fixed and stained by addition of 50 uL of a solution containing 8% formaldehyde and 4 uM DRAQ5 DNA dye (BioStatus, UK) per well. […] Five images were collected per well for reliable statistical analysis. Automated image analysis was performed with a script developed on Acapella High Content Imaging and Analysis Software (PerkinElmer). Output: percentage of infected cells per well as a second infection marker.; format: functional, organism-based, Rattus norvegicus; settings: H9c2, 4 h
# Trypanosoma cruzi [3] = experiment: GSK_TCAKS: pIC50 Trypanosoma cruzi Imaging: Amastigotes/Cell. […] Cells were then washed once with PBS before infection. T. cruzi trypomastigotes, collected at days 5 to 8 after infection from LLC-MK2 parasite infected cultures, were allowed to swim out for 4h at 37C from a centrifuged pellet (2,500 rpm/10 min/room temperature). Trypomastigotes were then collected and counted in a CASY Cell Counter. Trypomastigotes, in supplemented DMEM, were added to H9c2 cultures in a multiplicity of infection of 1 and incubated for 18 h. Cells were washed once with PBS before incubation of the infected H9c2 monolayer with trypsin (Life-Technologies) to detach cells from the flask. Cells were counted in a CASY Cell Counter using a 150 um capillary and their density set at 5 * 10^4 cells per mL in supplemented assay DMEM. Infected H9c2 were dispensed into 384-well poly-lysine coated assay plates at 50uL per well using a Multidrop Combi dispenser. After seeding them, the plates were incubated at 37C, 5% CO2 for 72h. Cultures were then fixed and stained by addition of 50 uL of a solution containing 8% formaldehyde and 4 uM DRAQ5 DNA dye (BioStatus, UK) per well. […] Five images were collected per well for reliable statistical analysis. Automated image analysis was performed with a script developed on Acapella High Content Imaging and Analysis Software (PerkinElmer). Output: number of amastigotes per cell as infection level measurement.; format: functional, organism-based, Rattus norvegicus; settings: H9c2, 4 h
# Trypanosoma cruzi [4] = experiment: as §1, with “H2C9” for “Trypanosoma cruzi”, “H9c2 Host Cardiomyocytes.” for “Infected Cells.”, “Number” for “percentage”, “H9c2 Host Cardiomyocytes nuclei to determine drug-related cytotoxicity.” for “infected cells per well as a second infection marker.”; format: functional, organism-based, Rattus norvegicus; settings: H9c2, 4 h
# Leishmania donovani [5] = experiment: GSK_TCAKS: pIC50 Leishmania donovani viability assay using fluorescence intensity. Assay plates (1536-well) were prepared by adding 30nL per well of compound. For single shot assay, the final compound concentration was 5uM. […] Briefly, eGFP LdBOB axenic amastigotes were harvested, fixed and counted in a CASY cell counter (Roche-Applied Science). A final concentration of 1.5 * 10^5 cells per well were prepared in amastigote media containing 500 U/mL penicillin/streptomycin (Invitrogen) and 6uL was dispensed to each experimental well using a Multidrop Combi dispenser (Thermo Scientific). 6uL of assay media was dispensed to control columns used as reference for 100% compound response. Following incubation for 72 h at 37C, 5% CO2, 2 uL of resazurin was added to each well at a final concentration of 0.5 mM in phosphate buffered saline (PBS) with IGEPAL (Sigma-Aldrich), 0.05% (v/v).; format: functional, organism-based
# Leishmania donovani [6] = experiment: GSK_TCAKS: pIC50 Leishmania donovani Imaging: Infected Macrophages. Assay plates (384-well) were prepared by adding 250nL of compound to each well. For single shot assay, the final compound concentration was 5 uM. […] Automated image analysis was performed with a script developed on Acapella High Content Imaging and Analysis Software (PerkinElmer). Output: Percent of infected macrophage cells were reported for each well.; format: functional, organism-based, Homo sapiens; settings: THP-1
# Leishmania donovani [7] = experiment: GSK_TCAKS: pIC50 Leishmania donovani Imaging: Amastigotes/Macrophages. Assay plates (384-well) were prepared by adding 250nL of compound to each well. For single shot assay, the final compound concentration was 5 uM. […] Automated image analysis was performed with a script developed on Acapella High Content Imaging and Analysis Software (PerkinElmer). Output: Average number of amastigotes per macrophage cell were reported for each well.; format: functional, organism-based, Homo sapiens; settings: THP-1
# Leishmania donovani [8] = experiment: GSK_TCAKS: pIC50 Leishmania donovani Imaging: THP-1 Host Macrophages. Assay plates (384-well) were prepared by adding 250nL of compound to each well. For single shot assay, the final compound concentration was 5 uM. […] Automated image analysis was performed with a script developed on Acapella High Content Imaging and Analysis Software (PerkinElmer). Output: THP-1 cell count were reported for each well.; format: functional, organism-based, Homo sapiens
# [9] = tested on: Trypanosoma brucei brucei; experiment: GSK_TCAKS: pIC50 Trypanosoma brucei viability assay using fluorescence intensity. Assay plates (1536-well) were prepared by dispensing 25nL of compound solution per well using an Echo acoustic dispenser (Labcyte).; format: functional, organism-based; settings: Lister 427, 2 h
# [10] = tested on: Trypanosoma brucei brucei; experiment: GSK_TCAKS: pIC50 Trypanosoma brucei viability assay using luminiscence. Assay plates (1536-well) were prepared. T. brucei cultures were harvested and counted in a CASY cell counter. A parasite suspension was prepared at a final concentration of 5 * 10^4 cells/mL in complete HMI9 medium and 6uL was dispensed to all wells containing compounds using a Multidrop Combi dispenser. 6uL of HMI9 media with 0.4% DMSO were dispensed to control columns. Plates were incubated for 24 h at 37C, 5% CO2 then tempered for 10 min at room temperature. ATP content was quantified by adding 4 uL of CellTiter-Glo Reagent (Promega) according to the manufacturer's instructions. Luminescence was measured using a ViewLux.; format: functional, organism-based; settings: Lister 427, CASY
# [11] = GSK_TCAKS: pIC50 HepG2 human cell line viability assay using luminiscence. […] Seeding density was checked to ensure that new mono-layers were not more than 50% confluent at the time of harvesting. Cell suspension was added to 500 mL of the same medium at a final density of 1.2 * 10^5 cells/mL. This cell suspension was dispensed (25 uL, 3000 cells per well) into 384-well clear-bottom plates using a Multidrop Combi dispenser. Prior to addition of the cell suspension, the screening compounds (250 nL) were pre-dispensed into the plates with an Echo liquid handler. Plates were incubated for 48 h at 37C, 5% CO2. After incubation, plates equilibrated at room temperature for 30 min before proceeding to develop the luminescent signal. The signal developer, CellTiter-Glo Reagent, was allowed to equilibrate at room temperature for 30 min and added to the plates (25uL per well) using a Multidrop Combi dispenser. Plates were left for 10 min at room temperature for stabilization and then read using a ViewLux.; format: toxicity, cell-based
# NIH3T3 = experiment: GSK_TCAKS: pIC50 NIH 3T3 cell line viability assay using luminiscence. Tissue culture surface treated assay plates (1536-well) were used. […] The 100% cells survival control was determined exposing the host-cells to a 0.5% DMSO concentration, whereas the 100% toxicity control was achieved by seeding the cells in presence of Amphotericin B at 50uM. Plates were incubated for four days at 37C, 5% CO2. The assay readout was developed by addition of 5uL of CellTiter-Glo Reagent following the manufacturer's instructions. Luminiscence was measured using a ViewLux.; format: functional, cell-based; settings: Mus musculus, NIH3T3, 96 h
# [12] = biological target: Sterol 14-alpha demethylase (Trypanosoma cruzi (strain CL Brener), UniProt Q7Z1V1); experiment: GSK_TCAKS: pIC50 CYP51 from Trypanosoma cruzi.; format: functional
# Chain of Sterol 14-alpha demethylase (Q7Z1V1 whole entry): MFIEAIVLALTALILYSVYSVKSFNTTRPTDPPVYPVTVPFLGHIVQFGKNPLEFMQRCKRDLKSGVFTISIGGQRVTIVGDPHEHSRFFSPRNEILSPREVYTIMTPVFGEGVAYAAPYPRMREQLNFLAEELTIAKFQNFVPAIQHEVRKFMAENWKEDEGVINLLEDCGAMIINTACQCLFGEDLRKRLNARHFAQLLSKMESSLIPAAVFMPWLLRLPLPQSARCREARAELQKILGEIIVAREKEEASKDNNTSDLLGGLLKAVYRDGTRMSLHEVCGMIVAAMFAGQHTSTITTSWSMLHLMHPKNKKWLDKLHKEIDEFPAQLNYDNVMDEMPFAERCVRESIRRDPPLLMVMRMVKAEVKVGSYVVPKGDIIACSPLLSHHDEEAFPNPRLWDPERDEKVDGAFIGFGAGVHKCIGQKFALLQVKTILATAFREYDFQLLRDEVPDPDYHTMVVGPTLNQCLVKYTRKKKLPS
SMILES,IC50 (Trypanosoma cruzi [1]) [µM],IC50 (Trypanosoma cruzi [2]) [µM],IC50 (Trypanosoma cruzi [3]) [µM],IC50 (Trypanosoma cruzi [4]) [µM],IC50 (Leishmania donovani [5]) [µM],IC50 (Leishmania donovani [6]) [µM],IC50 (Leishmania donovani [7]) [µM],IC50 (Leishmania donovani [8]) [µM],IC50 [9] [µM],IC50 [10] [µM],IC50 at 48 h [11] [µM],IC50 (NIH3T3) [µM],IC50 [12] [µM]
O=C(NCC(c1cccnc1)N1CCc2ccccc2C1)C(=O)Nc1cccc(Cl)c1 (stereo not given),0.2,0.0794,0.0631,25.1,1.26,> 50.1,> 50.1,> 50.1,15.8,20,> 100,25.1,0.0631
CCCCn1nnnc1CSc1nc(C)cc(C)c1C#N,0.316,0.2,0.1,> 50.1,1.26,3.98,3.16,> 50.1,> 39.8,> 39.8,> 100,> 50.1,50.1
O=C(CSc1ccc(F)cc1)N[C@@H](Cc1c[nH]cn1)C(=O)NCCc1ccccc1,0.447,0.501,0.501,> 50.1,> 50.1,> 50.1,> 50.1,> 50.1,> 39.8,> 39.8,> 100,12.6,0.0794
CCOc1cnn(C)c(=O)c1Nc1ccc(C(=O)NCc2ccc(F)cc2)cc1,0.251,0.1,0.126,> 50.1,31.6,> 50.1,> 50.1,31.6,> 39.8,> 39.8,> 100,> 50.1,3.98
CN(Cc1nnnn1C1CCN(Cc2ccc(-n3ccnc3)cc2)CC1)c1ccc(F)cc1F,0.316,0.316,0.316,> 50.1,> 50.1,> 50.1,15.8,> 50.1,> 39.8,> 39.8,> 100,25.1,0.126
CN(Cc1ccccc1)Cc1nnnn1C1CCN(Cc2ccc(-n3ccnc3)cc2)CC1,0.398,0.316,0.251,> 50.1,> 50.1,> 50.1,> 50.1,31.6,> 39.8,> 39.8,> 100,3.98,0.0501
O=C(NC1C(=O)N(c2ccccc2)C1c1cccnc1)c1ccc(Cl)s1 (stereo not given),0.0316,0.0501,0.0398,> 50.1,1,> 50.1,0.794,> 50.1,> 39.8,> 39.8,> 100,> 50.1,0.2
CCn1nccc1CN(C)C(=O)C=Cc1ccc(Cl)cc1,0.224,0.316,0.316,> 50.1,15.8,> 50.1,> 50.1,> 50.1,31.6,> 39.8,> 100,> 50.1,0.316
Cc1n[nH]c2c1C(c1ccc(OCc3ccccc3F)cc1)SCC(=O)N2 (stereo not given),2,3.16,0.794,> 50.1,39.8,> 50.1,> 50.1,> 50.1,25.1,> 39.8,> 100,> 50.1,> 100
CCCN(Cc1ccc(OC)c(OC)c1)Cc1cc(=O)c2c(C)cc(C)cc2[nH]1,2,2,0.501,> 50.1,20,25.1,20,5.01,25.1,> 39.8,63.1,31.6,> 100
